In patent publication US8114865B2, “Indazole derivatives as kinase inhibitors for the treatment of cancer” (Nerviano Medical Sciences S.R.L., priority 2006, dated 2012):

Key:
[1] = system: IGF1-induced S6 phosphorylation; assay: Growth factor induced S6 ribosomal protein phosphorylation in primary human fibroblasts; type: cell-based; details: normal human dermal fibroblasts (NHDF), 10 nM IGF-1
Protocol: Phosphorylation of S6 ribosomal protein in response to growth factor stimulation of normal human dermal fibroblasts (NHDF) was used to assess compound potency in inhibiting IGF-1 induced signal transduction in cells, and selectivity towards EGF and PDGF stimulus. NHDF cells obtained from PromoCell (Heidelberg, Germany), were maintained at 37° C. in a humidified atmosphere with 5% CO2 in complete Fibroblast Growth Medium (PromoCell). For assay, NHDF were seeded in 384-well tissue culture plates (clear- and flat-bottomed black plates; Matrix Technologies Inc., Hudson, N.H., USA) at a density of 5000 cells/well in serum-free medium containing 0.1% bovine serum albumin (BSA) and incubated for 5 days. Starved cells were treated for 1 hour with desired doses of compounds and then stimulated for a further 2 hours with either 10 nM IGF-1 (Invitrogen Corp., CA, USA), 10 nM EGF (Gibco BRL, USA) or 1 nM PDGF-B/B (Roche Diagnostics GmbH, Germany). Cells were then fixed in PBS/3.7% paraformaldehyde for 20 minutes at room temperature, washed ×2 with PBS, and permeabilized with PBS/0.3% Triton X-100 for 15 minutes. Wells were then saturated with PBS/1% non-fat dry milk (Bio-Rad Laboratories, Hercules, Calif., USA) for 1 hour, and then probed for 1 hour at 37° C. with anti-phospho-S6 (Ser 235/236) antibody (Cell Signaling Technology, Beverly, Mass., USA, cat. #2211) at 1/200 dilution in PBS/1% milk/0.3% Tween 20. Wells were then washed twice with PBS, and incubated for 1 hour at 37° C. with PBS/1% milk/0.3% Tween 20+1 microg/mL DAPI (4,6-diamidino-2-phenylindole)+ 1/500 Goat anti-rabbit Cy5™-conjugated secondary antibody (Amersham Biosciences, Little Chalfont, Buckinghamshire, UK). […] Fluorescence images in the DAPI and Cy5™ channels were automatically acquired, stored and analysed using a Cellomics ArrayScan™ IV instrument (Cellomics, Pittsburgh, USA); the Cellomics Cytotoxicity Algorithm was used to quantify cytoplasmic fluorescence associated with phospho-S6 (Cy5™ signal parameter: “Mean Lyso Mass-pH”) for each cell in 10 fields/well, and eventually expressed as a mean population value. […]

[2] = molecular target: IGF-1R (Homo sapiens, UniProt P08069); assay: Western blot analysis of receptor phosphorylation following stimulation with IGF-1 in MCF-7 human breast cancer cells; type: cell-based; parameters: endogenous in cells; host or cells: MCF-7 (ATCC# HTB-22); details: starved MCF7 cells, 10 nM IGF1, increasing concentrations of compound, FIG. 1
Protocol: [formula] where νb is the baseline velocity, v is the observed reaction velocity, vo is the velocity in the absence of inhibitors, and [I] is the inhibitor concentration. Cell-Based Assays for Inhibitors of IGF-1R Kinase Activity Western Blot Analysis of Receptor Phosphorylation Following Stimulation with IGF-1 in MCF-7 Human Breast Cancer Cells
MCF-7 cells (ATCC# HTB-22) were seeded in 12-well tissue culture plates at 2×10^5 cells/well in E-MEM medium (MEM+Earle's BSS+2 mM glutamine+0.1 mM non-essential amino acids)+10% FCS, and incubated overnight at 37° C., 5% CO2, 100% relative humidity. Cells were then starved by replacing E-MEM+10% FCS with E-MEM+0.1% BSA, and incubating overnight. After this incubation, wells were treated with desired concentrations of compound for 1 hour at 37° C., and were then stimulated with 10 nM recombinant human IGF-1 (Invitrogen, Carlsbad, Calif., USA) for 10 minutes at 37° C. Cells were then washed with PBS and lysed in 100 microL/well cell lysis buffer (M-PER Mammalian Protein Extraction Reagent [Product #78501, Pierce, Rockford, Ill., USA]+10 mM EDTA+Protease inhibitor cocktail [Sigma-Aldrich product #P8340]+phosphatase inhibitor cocktail [Sigma-Aldrich products #P2850+#P5726]). Cell lysates were cleared by centrifugation at 10,000×g for 5 minutes, and 10 microg/lane of cleared lysate protein were run on NuPAGE gels (NuPAGE 4-12% 10-lane Bis-Tris gels, Invitrogen) with MOPS running buffer, then transferred onto Hybond-ECL nitrocellulose filters (Amersham Biosciences, Little Chalfont, Buckinghamshire, UK) using Mini PROTEAN II chambers (Bio-Rad Laboratories, Hercules, Calif., USA). […]

Sequence of IGF-1R (P08069 31-1367): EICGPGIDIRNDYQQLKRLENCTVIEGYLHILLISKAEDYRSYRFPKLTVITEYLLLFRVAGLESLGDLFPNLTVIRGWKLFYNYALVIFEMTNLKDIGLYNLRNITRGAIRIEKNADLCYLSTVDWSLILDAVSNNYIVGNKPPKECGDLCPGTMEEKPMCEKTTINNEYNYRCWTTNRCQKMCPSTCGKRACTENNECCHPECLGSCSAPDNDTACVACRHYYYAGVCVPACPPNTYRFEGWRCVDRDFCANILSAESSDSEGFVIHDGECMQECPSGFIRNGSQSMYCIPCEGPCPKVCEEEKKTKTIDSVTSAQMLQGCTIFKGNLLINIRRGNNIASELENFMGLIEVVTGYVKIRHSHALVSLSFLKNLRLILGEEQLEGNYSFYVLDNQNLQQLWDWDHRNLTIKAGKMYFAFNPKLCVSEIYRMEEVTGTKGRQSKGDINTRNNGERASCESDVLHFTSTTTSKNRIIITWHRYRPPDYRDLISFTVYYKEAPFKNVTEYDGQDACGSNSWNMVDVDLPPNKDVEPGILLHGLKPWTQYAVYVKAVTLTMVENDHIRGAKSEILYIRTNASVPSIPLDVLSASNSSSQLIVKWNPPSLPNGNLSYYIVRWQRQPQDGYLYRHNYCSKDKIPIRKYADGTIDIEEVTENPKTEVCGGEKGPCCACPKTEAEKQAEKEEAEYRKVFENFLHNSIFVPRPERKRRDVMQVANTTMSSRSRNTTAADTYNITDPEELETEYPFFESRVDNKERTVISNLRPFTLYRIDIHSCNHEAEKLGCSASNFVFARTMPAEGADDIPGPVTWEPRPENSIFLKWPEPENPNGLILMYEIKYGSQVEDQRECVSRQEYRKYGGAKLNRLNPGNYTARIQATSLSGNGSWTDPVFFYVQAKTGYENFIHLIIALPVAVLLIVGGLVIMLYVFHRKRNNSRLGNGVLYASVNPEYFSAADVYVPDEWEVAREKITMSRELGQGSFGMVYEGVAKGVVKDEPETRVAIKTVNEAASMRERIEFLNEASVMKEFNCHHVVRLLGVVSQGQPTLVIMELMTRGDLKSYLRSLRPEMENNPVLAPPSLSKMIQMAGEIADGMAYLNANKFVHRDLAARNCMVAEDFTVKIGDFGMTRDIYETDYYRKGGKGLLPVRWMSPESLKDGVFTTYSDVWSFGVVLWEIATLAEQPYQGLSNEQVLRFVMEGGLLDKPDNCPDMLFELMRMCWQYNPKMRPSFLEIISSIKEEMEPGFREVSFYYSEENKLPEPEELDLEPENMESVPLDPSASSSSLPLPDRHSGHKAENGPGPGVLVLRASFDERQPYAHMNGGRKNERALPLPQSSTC

Row | SMILES | IC50 [1] [nM] | inhibition of IGF1-induced IGF1R auto-phosphorylation [2]
1 | CN1CCN(c2ccc(C(=O)Nc3n[nH]c4ccc(S(=O)(=O)c5ccccc5)cc34)cc2)CC1 [Compound 1, N-(5-Benzenesulfonyl-1H-indazol-3-yl)-4-(4-methyl-piperazin-1-yl)-benzamide] | > 10000 | inhibition of IGF1-induced IGF1R auto-phosphorylation
2 | CN1CCN(c2ccc(C(=O)Nc3n[nH]c4ccc(S(=O)(=O)c5ccccc5)cc34)c(NC(=O)[C@@H]3CCCO3)c2)CC1 [Compound 36, (S)-Tetrahydro-furan-2-carboxylic acid [2-(5-benzenesulfonyl-1H-indazol-3-ylcarbamoyl)-5-(4-methyl-piperazin-1-yl)-phenyl]-amide] | 1200 | inhibition of IGF1-induced IGF1R auto-phosphorylation
3 | CN1CCN(c2ccc(C(=O)Nc3n[nH]c4ccc(S(=O)(=O)c5ccccc5)cc34)c(NC(=O)c3ccc[nH]3)c2)CC1 [Compound 33, 1H-pyrrole-2-carboxylic acid [2-(5-benzenesulfonyl-1H-indazol-3-ylcarbamoyl)-5-(4-methyl-piperazin-1-yl)-phenyl]amide] | 270 | inhibition of IGF1-induced IGF1R auto-phosphorylation
